Laboratory results as given in patent US6756359B2, “C12 modified erythromycin macrolides and ketolides having antibacterial activity” (Chiron Corporation, priority 2001, dated 2004).
Values after ≈ are worked out from the molar mass of the structure shown.

Legend:
Test in all cases: Antibacterial activity in vitro, MIC by broth microdilution
[1] = tested on: S. epidermidis Step_14990; assay type: cell-based; conditions: Table 5, Strain ID B: S. epidermidis Step_14990; unit assumed
Description: (§1) Representative compounds of the present invention were assayed in vitro for antibacterial activity against the bacterial isolates listed in Table 1 as follows:
(§2) The bacterial isolates listed in Table 1 were cultivated from −70° C. frozen stocks by two consecutive overnight passages (P1, P2) at 35° C. on 5% blood agar (Remel, Lenexa, Kans.). Chocolate agar (Remel) is used for Haemophilus influenzae. H. influenzae and Streptococcus pneumoniae are incubated in 5-10% CO2.
(§3) To determine the amount of solvent to be used to give the desired final concentration, the formula “weight obtained in mg/final concentration in mg/mL” will be used. It will give the amount of solvent in mL needed to be added to give the desired concentration. For example, if 2.5 mg/mL is the desired concentration and the weight of compound is 13.7 mg, then the amount of solvent to be added is 3.94 mL (13.7 mg/2.5 mg/mL=3.94 mLs). Methanol is used as the solvent to dissolve the test compounds. Further dilution of stock is done in sterile, deioinzed water. Drug stocks are kept frozen at −70° C., protected from light.
(§4) MICs are determined by the broth microdilution method in accordance with the NCCLS guidelines. In brief, organism suspensions are adjusted to a 0.5 McFarland standard to yield a final inoculum between 3×10^5 and 7×10^5 CFU/mL. Drug dilutions and inocula are made in sterile, cation adjusted Mueller-Hinton Broth (CAMHB) (Remel) for all but S. pneumoniae [CAMHB with 2-5% lysed horse blood (Remel)] and H. influenzae [Haemophilus Test Medium (Remel)]. An inoculum volume of 100 μl is added to wells containing 100 μl of broth with 2-fold serial dilutions of drug. All inoculated microdilution trays are incubated in ambient air at 35° C. for 18-24 hours, except for S. pneumoniae, and H. influenzae (both at 5-10% CO2).
(§5) Following appropriate incubation, the MIC is determined and the MIC is defined as the lowest concentration of the drug that prevented visible growth.

S. aureus Stau_29213 = assay type: cell-based; conditions: Table 5, Strain ID A: S. aureus Stau_29213; unit assumed
Description: as §1, §2, §3, §4, §5

[2] = tested on: S. epidermidis Step_f50654 Pen S; assay type: cell-based; conditions: Table 5, Strain ID C: S. epidermidis Step_f50654; unit assumed
Description: as §1, §2, §3, §4, §5

S. pyogenes Stpy_8668 = assay type: cell-based; conditions: Table 5, Strain ID E: S. pyogenes Stpy_8668
Description: as §1, §2, §3, §4, §5

E. faecalis Enfa_29212 = assay type: cell-based; conditions: Table 5, Strain ID D: E. faecalis Enfa_29212; unit assumed
Description: as §1, §2, §3, §4, §5

[3] = tested on: S. pneumoniae Stpn_297-749 Pen R; assay type: cell-based, Streptococcus pneumoniae; conditions: Table 5, Strain ID G: S. pneumoniae Stpn_297-749
Description: as §1, §2, §3, §4, §5

[4] = tested on: S. pneumoniae Stpn_Erm S 4297; assay type: cell-based, Streptococcus pneumoniae; conditions: Table 5, Strain ID J: S. pneumoniae Stpn_Erm S 4297
Description: as §1, §2, §3, §4, §5

[5] = tested on: S. pneumoniae Stpn_280-962 Pen S; assay type: cell-based, Streptococcus pneumoniae; conditions: Table 5, Strain ID H: S. pneumoniae Stpn_280-962
Description: as §1, §2, §3, §4, §5

[6] = tested on: S. pneumoniae Stpn_Erm 6849; assay type: cell-based, Streptococcus pneumoniae; conditions: Table 5, Strain ID I: S. pneumoniae Stpn_Erm 6849
Description: as §1, §2, §3, §4, §5

S. pneumoniae Stpn_49619 = assay type: cell-based, Streptococcus pneumoniae; conditions: Table 5, Strain ID F: S. pneumoniae Stpn_49619
Description: as §1, §2, §3, §4, §5

[7] = tested on: S. pneumoniae Stpn_Mef S 3427; assay type: cell-based, Streptococcus pneumoniae; conditions: Table 5, Strain ID L: S. pneumoniae Stpn_Mef S 3427
Description: as §1, §2, §3, §4, §5

[8] = tested on: S. pneumoniae Stpn_Mef 5654; assay type: cell-based, Streptococcus pneumoniae; conditions: Table 5, Strain ID K: S. pneumoniae Stpn_Mef 5654; unit assumed
Description: as §1, §2, §3, §4, §5

H. influenzae Hain_49247 = assay type: cell-based, Haemophilus influenzae; conditions: Table 5, Strain ID M: H. influenzae Hain_49247; unit assumed
Description: as §1, §2, §3, §4, §5

MIC [1] [µg/mL]	MIC (S. aureus Stau_29213) [µg/mL]	MIC [2] [µg/mL]	MIC (S. pyogenes Stpy_8668; unit assumed) [µg/mL]	MIC (E. faecalis Enfa_29212) [µg/mL]	MIC [3]	MIC ([4]; unit assumed) [µg/mL]	MIC [5]	MIC ([6]; unit assumed) [µg/mL]	MIC (S. pneumoniae Stpn_49619)	MIC ([7]; unit assumed) [µg/mL]	MIC [8] [µg/mL]	MIC (H. influenzae Hain_49247) [µg/mL]	MIC [4]	MIC [6]	SMILES	MIC (S. pyogenes Stpy_8668)	MIC [7]
3.13 (≈ 3.73 µM)	3.13 (≈ 3.73 µM)	3.13 (≈ 3.73 µM)	0.2 (≈ 0.239 µM)	0.78 (≈ 0.931 µM)	≦0.05	0.4 (≈ 0.477 µM)	≦0.05	0.78 (≈ 0.931 µM)	≦0.05	0.2 (≈ 0.239 µM)	0.78 (≈ 0.931 µM)	25 (≈ 29.8 µM)	–	–	C/C=C/[C@]12OC(=O)N(CCCCn3cnc(-c4cccnc4)c3)[C@@H]1[C@@H](C)C(=O)[C@H](C)C[C@](C)(OC)[C@H](O[C@@H]1O[C@H](C)C[C@H](N(C)C)[C@H]1O)[C@@H](C)C(=O)[C@@H](C)C(=O)O[C@@H]2CC [65(2), (3aS,4R,7R,9R,10R,11S,13R,15R,15aR)-4-ethyl-11-methoxy-7,9,11,13,15-pentamethyl-2,6,8,14-tetraoxo-3a-[(1E)-prop-1-enyl]-1-[4-(4-pyridin-3-yl-1H-imidazol-1-yl)butyl]tetradecahydro-2H-oxacyclotetradecino[4,3-d][1,3]oxazol-10-yl 3,4,6-trideoxy-3-(dimethylamino)-D-xylo-hexopyranoside]	–	–
0.4 (≈ 0.483 µM)	0.4 (≈ 0.483 µM)	0.4 (≈ 0.483 µM)	0.1 (≈ 0.121 µM)	0.2 (≈ 0.242 µM)	≦0.05	0.2 (≈ 0.242 µM)	≦0.05	0.78 (≈ 0.942 µM)	≦0.05	0.1 (≈ 0.121 µM)	0.4 (≈ 0.483 µM)	3.13 (≈ 3.78 µM)	–	–	CC[C@H]1OC(=O)[C@@](C)(F)C(=O)[C@H](C)[C@@H](OC2O[C@H](C)C[C@H](N(C)C)[C@H]2O)[C@@](C)(OC)C[C@@H](C)C(=O)[C@H](C)[C@H]2N(CCCCc3ccnc4ccccc34)C(=O)O[C@]12CC (stereo partly drawn) [Example 17, (3aS,4R,7S,9R,10R,11S,13R,15R,15aR)-3a,4-diethyl-7-fluoro-11-methoxy-7,9,11,13,15-pentamethyl-2,6,8,14-tetraoxo-1-(4-quinolin-4-ylbutyl)tetradecahydro-2H-oxacyclotetradecino[4,3-d][1,3]oxazol-10-yl 3,4,6-trideoxy-3-(dimethylamino)-D-xylo-hexopyranoside]	–	–
0.4 (≈ 0.494 µM)	0.78 (≈ 0.963 µM)	0.78 (≈ 0.963 µM)	0.1 (≈ 0.123 µM)	0.1 (≈ 0.123 µM)	≦0.05	0.2 (≈ 0.247 µM)	≦0.05	3.13 (≈ 3.86 µM)	≦0.05	–	0.4 (≈ 0.494 µM)	3.13 (≈ 3.86 µM)	–	–	CC[C@H]1OC(=O)[C@H](C)C(=O)[C@H](C)[C@@H](OC2O[C@H](C)C[C@H](N(C)C)[C@H]2O)[C@@](C)(OC)C[C@@H](C)C(=O)[C@H](C)[C@H]2N(CCCCc3ccc4ccccc4n3)C(=O)O[C@]12CC (stereo partly drawn) [Example 18, (3aS,4R,7R,9R,10R,11S,13R,15R,15aR)-3a,4-diethyl-11-methoxy-7,9,11,13,15-pentamethyl-2,6,8,14-tetraoxo-1-(4-quinolin-2-ylbutyl)tetradecahydro-2H-oxacyclotetradecino[4,3-d][1,3]oxazol-10-yl 3,4,6-trideoxy-3-(dimethylamino)-D-xylo-hexopyranoside]	–	≦0.05
0.4 (≈ 0.483 µM)	0.4 (≈ 0.483 µM)	0.4 (≈ 0.483 µM)	0.1 (≈ 0.121 µM)	0.4 (≈ 0.483 µM)	≦0.05	0.2 (≈ 0.242 µM)	≦0.05	0.78 (≈ 0.942 µM)	≦0.05	0.1 (≈ 0.121 µM)	0.4 (≈ 0.483 µM)	6.25 (≈ 7.55 µM)	–	–	CC[C@H]1OC(=O)[C@@](C)(F)C(=O)[C@H](C)[C@@H](OC2O[C@H](C)C[C@H](N(C)C)[C@H]2O)[C@@](C)(OC)C[C@@H](C)C(=O)[C@H](C)[C@H]2N(CCCCc3ccc4ccccc4n3)C(=O)O[C@]12CC (stereo partly drawn) [Example 19, (3aS,4R,7S,9R,10R,11S,13R,15R,15aR)-3a,4-diethyl-7-fluoro-11-methoxy-7,9,11,13,15-pentamethyl-2,6,8,14-tetraoxo-1-(4-quinolin-2-ylbutyl)tetradecahydro-2H-oxacyclotetradecino[4,3-d][1,3]oxazol-10-yl 3,4,6-trideoxy-3-(dimethylamino)-D-xylo-hexopyranoside]	–	–
0.1 (≈ 0.119 µM)	0.2 (≈ 0.238 µM)	0.2 (≈ 0.238 µM)	–	0.1 (≈ 0.119 µM)	≦0.05	–	≦0.05	–	≦0.05	–	0.4 (≈ 0.476 µM)	6.25 (≈ 7.44 µM)	≦0.05	≦0.5	CC[C@H]1OC(=O)[C@H](C)C(=O)[C@H](C)[C@@H](OC2O[C@H](C)C[C@H](N(C)C)[C@H]2O)[C@@](C)(OC)C[C@@H](C)C(=O)[C@H](C)[C@H]2N(CCCCn3cc(-c4cccnc4)nc3C)C(=O)O[C@]12CC (stereo partly drawn) [Example 20, (3aS,4R,7R,9R,10R,11S,13R,15R,15aR)-3a,4-diethyl-11-methoxy-7,9,11,13,15-pentamethyl-1-[4-(2-methyl-4-pyridin-3-yl-1H-imidazol-1-yl)butyl]-2,6,8,14-tetraoxotetradecahydro-2H-oxacyclotetradecino[4,3-d][1,3]oxazol-10-yl 3,4,6-trideoxy-3-(dimethylamino)-D-xylo-hexopyranoside]	≦0.05	≦0.05

SMILES	MIC [1] [µg/mL]	MIC (S. aureus Stau_29213) [µg/mL]	MIC [2] [µg/mL]	MIC (S. pyogenes Stpy_8668; unit assumed) [µg/mL]	MIC (E. faecalis Enfa_29212) [µg/mL]	MIC [3]	MIC ([4]; unit assumed) [µg/mL]	MIC [5]	MIC ([6]; unit assumed) [µg/mL]	MIC (S. pneumoniae Stpn_49619)	MIC ([7]; unit assumed) [µg/mL]	MIC [8] [µg/mL]	MIC (H. influenzae Hain_49247) [µg/mL]	MIC [4]	MIC [6]	MIC (S. pyogenes Stpy_8668)	MIC [7]
CC[C@H]1OC(=O)[C@H](C)C(=O)[C@H](C)[C@@H](OC2O[C@H](C)C[C@H](N(C)C)[C@H]2O)[C@@](C)(OC)C[C@@H](C)C(=O)[C@H](C)[C@H]2N(CCCCn3cnc4cccnc43)C(=O)O[C@]12CC (stereo partly drawn) [Example 14, (3aS,4R,7R,9R,10R,11S,13R,15R,15aR)-3a,4-diethyl-1-[4-(3H-imidazo[4,5-b]pyridin-3-yl)butyl]-11-methoxy-7,9,11,13,15-pentamethyl-2,6,8,14-tetraoxotetradecahydro-2H-oxacyclotetradecino[4,3-d][1,3]oxazol-10-yl 3,4,6-trideoxy-3-(dimethylamino)-D-xylo-hexopyranoside]	0.2 (≈ 0.25 µM)	0.4 (≈ 0.5 µM)	0.2 (≈ 0.25 µM)	–	0.1 (≈ 0.125 µM)	≦0.05	0.1 (≈ 0.125 µM)	≦0.05	0.4 (≈ 0.5 µM)	≦0.05	–	0.4 (≈ 0.5 µM)	3.13 (≈ 3.91 µM)	–	–	≦0.05	≦0.05
CC[C@H]1OC(=O)[C@H](C)C(=O)[C@H](C)[C@@H](OC2O[C@H](C)C[C@H](N(C)C)[C@H]2O)[C@@](C)(OC)C[C@@H](C)C(=O)[C@H](C)[C@H]2N(CCCCc3ccnc4ccccc34)C(=O)O[C@]12CC (stereo partly drawn) [Example 15, (3aS,4R,7R,9R,10R,11S,13R,15R,15aR)-3a,4-diethyl-11-methoxy-7,9,11,13,15-pentamethyl-2,6,8,14-tetraoxo-1-(4-quinolin-4-ylbutyl)tetradecahydro-2H-oxacyclotetradecino[4,3-d][1,3]oxazol-10-yl 3,4,6-trideoxy-3-(dimethylamino)-D-xylo-hexopyranoside]	0.2 (≈ 0.247 µM)	0.4 (≈ 0.494 µM)	0.4 (≈ 0.494 µM)	–	0.1 (≈ 0.123 µM)	≦0.05	0.1 (≈ 0.123 µM)	≦0.05	1.56 (≈ 1.93 µM)	≦0.05	–	0.2 (≈ 0.247 µM)	3.13 (≈ 3.86 µM)	–	–	≦0.05	≦0.05
